According to PMC10477481 (The Journal of Biological Chemistry, 2023):
pKd: −log10 of the molar value.

Key:
[1] = tested on: pro-MMP-2 activated by APMA; conditions: fluorescence-quenched MMP-specific peptide substrate; read-out: KM of FS-6 with MMP; cited from earlier work
Description: The assay was performed using a fluorescence-quenched MMP-specific peptide substrate FS-6 (Sigma; catalog no.: SCP0193, KM >30 μM) ([20]). Recombinantly produced human proMMP2 enzyme, dissolved in reaction buffer (70 mM Tris [pH 8.0], 150 mM NaCl, 5 mM CaCl2, 1 μM ZnCl2, and 0.05% Brij-35) at a concentration of 500 nM, was activated by addition of 1 mM APMA and incubated at 37 °C for 1 h. The assay reaction was then composed by adding 0.5 μl activated enzyme to yield a final concentration of 2.5 nM, 94.5 μl test substance (inhibitor) in reaction buffer, and finally 5 μl substrate to reach a fi ...

kallikrein = conditions: cited from earlier work
Text: Therefore, we produced a CTX-displaying phage clone, customized, and validated the flow cytometry–based cobalt-coated bead test for quantitative assessment of the binding tendency of ligand-displaying phages to target proteins immobilized on the surface of microbeads. To support the validation and to investigate the specificity of bind ...

[2] = target: matrix metalloproteinase 2, recombinant (which of the four preparations is not told) (human) (UniProt P08253); experiment: flow cytometry of protein-coated microbeads (Ig-coated bead test); KD estimated by the authors from the direct binding assays with labeled CTX and the competitive displacement studies together
[3] = target: T1, recombinant human active MMP-2 (Homo sapiens, UniProt P08253); format: biochemical; conditions: pH 7.4
T1 construct: the mature active enzyme (amino acids: 110–660), expressed in E. coli (Sigma, catalog no.: SRP3118); purchased Sigma SRP3118; host or cells: E. coli
T1 sequence (P08253 110-660): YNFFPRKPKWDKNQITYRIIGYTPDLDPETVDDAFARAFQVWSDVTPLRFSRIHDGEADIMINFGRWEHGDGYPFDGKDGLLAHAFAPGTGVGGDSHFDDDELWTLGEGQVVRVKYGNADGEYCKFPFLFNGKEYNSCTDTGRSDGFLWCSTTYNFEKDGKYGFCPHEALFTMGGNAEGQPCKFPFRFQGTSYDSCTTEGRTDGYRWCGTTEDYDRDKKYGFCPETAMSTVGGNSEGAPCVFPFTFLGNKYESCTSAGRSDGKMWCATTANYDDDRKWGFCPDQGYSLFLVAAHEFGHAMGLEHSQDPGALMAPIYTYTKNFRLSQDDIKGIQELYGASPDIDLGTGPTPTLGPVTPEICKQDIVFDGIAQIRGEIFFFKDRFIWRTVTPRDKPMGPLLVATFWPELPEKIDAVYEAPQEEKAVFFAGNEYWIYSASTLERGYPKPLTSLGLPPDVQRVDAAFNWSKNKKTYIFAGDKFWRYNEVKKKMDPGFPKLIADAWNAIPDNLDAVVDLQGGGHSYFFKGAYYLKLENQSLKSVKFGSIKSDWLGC
Description: The assay was performed using fluorogenic dye-quenched (DQ)-gelatin from pig skin (ThermoFisher Scientific) as substrate and recombinant human MMP-2 enzyme (Sigma; catalog no.: SRP3118), dissolved in water (100 μg/ml), and diluted further in reaction buffer (50 mM Tris, 150 mM NaCl, 5 mM CaCl2, pH = 7.4). The assay (and control) reactions were composed by loading 50 μl enzyme (or buffer), 40 μl inhibitor (or buffer), and 10 μl substrate (or buffer) into wells of a 96-well plate (PS, black, half-area, clear-bottom; Greiner Bio-One) at concentrations needed for the stated final concentrations. […] Immediately thereafter, the plate was placed in a fluorescence plate reader (SpectraMax iD3; Molecular Devices), and fluorescence was measured every 15 min for 3 h (KM measurements) or every 5 min for 1 h (inhibitor measurements) at 37 °C (λexcitation = 484 nm and λemission = 525 nm). KM was determined by measuring V0 at a series of substrate concentrations (1.25, 2.5, 5, 10, 20, and 40 μg/ml) and enzyme concentrations of 2.5, 5, and 10 nM. Thereafter, the lowest enzyme concentration with reasonably good signal-to-noise ratio (2.5 nM) and a substrate concentration (3.5 μg/ml) approximately equivalent with the determined KM value (3.4 μg/ml, i.e., 34 nmol/l as calculated with approximate MW of 100,000 g/mol for DQ gelatin) were applied in the enzyme inhibition study. […]

## Mca-Lys-Pro-Leu-Gly-Leu-Dpa-Ala-Arg-NH2 [FS-6, fluorescence-quenched MMP-specific peptide substrate]
[1]
  Km: > 30 µM

## ecallantide [DX-88]
kallikrein
  affinity to kallikrein: subnanomolar affinity

## chlorotoxin, synthetically produced, with carboxamide C terminus (from UniProt P45639 1-36) (peptide)
[2]
  pKd: 6.22 to 6.30

## CNC(=O)[C@H](Cc1c[nH]c2ccccc12)NC(=O)[C@@H](CC(=O)NO)CC(C)C [Ilomastat, ilomastat]
[3]
  effect on gelatinolytic activity of MMP-2: concentration-dependent inhibition
